Assay results as given in patent US20170014432A1, “COMPOSITIONS AND METHODS FOR REDUCING CHRONIC LOW-LEVEL INFLAMMATION” (priority 2014, published 2017).

Test system: delta-5-desaturase
Experiment: Two-week feeding study, AA/DGLA ratio in plasma
Assay type: in vivo, mice
Details: for Average % decrease in AA/DGLA Ratio in Plasma: mice, 36.7 mg/day sesamol palmitate in safflower oil by gavage, low-fat diet
Method: To determine the ability of a sesamol derivative of the present invention to inhibit the formation of arachidonic acid, a two-week feeding study was done with two groups of mice with 8 mice in each group. We mixed 4.4 g of sesamol palmitate into 60 ml of safflower oil. This provided a concentration of sesamol palmitate of 73.3 mg/ml. The mice in the sesamol group received 500 μl each day (36.7 mg) via gavage of the sesamol palmitate compound in safflower oil whereas the control group received 500 μl of the safflower oil control. Both groups were maintained on a low-fat diet. 200 μl of blood was drawn at three time points (0, 1, and 2 weeks) for analysis of the fatty acid composition in the plasma.
Since the sesamol derivative, sesamol palmitate, inhibits the enzyme delta-5-desaturase that converts dihomo gamma linolenic acid (DGLA) to arachidonic acid (AA), we choose to look at the decrease in the AA/DGLA ratio as an indication of efficacy of sesamol palmitate in inhibiting the key enzyme. The percent difference between the AA/DGLA ratio in each […] was determined at the starting point and at days 7 and 14. The percent differences in the AA/DGLA per each rat in the active and placebo groups were then averaged.

For CCCCCCCCCCCCCCCC(=O)Oc1ccc2c(c1)OCO2 [Sesamol Palmitate], the “Average % decrease in AA/DGLA Ratio in Plasma” value (Days 0-7) was −25.4%, the “Average % decrease in AA/DGLA Ratio in Plasma” value (Days 0-14) was −23.4% and the “Average decrease in the AA/DGLA ratio relative to placebo group” value (active group versus placebo group) was “approximately double”.
